Data: publication PMC10657973 (Journal of Pharmaceutical Analysis, 2023)
Entries after “also recorded” stand apart in the source; their conditions may differ. Each block holds one molecule with its values, some of them ahead of it.

Columns and labels:
[1] = tested on: OAT1/3-MRP4 double-transfected MDCK cells; assay: Transcellular transport in OAT1/3-MRP4 double-transfected MDCK cells; assay type: cell-based
[2] = tested on: rMRP4; assay type: in vivo, rats
[3] = cited from earlier work
[4] = Correlation between biomarkers and cefmetazole pharmacokinetics in rats; assay type: in vivo
[5] = tested on: MRP4; details: read-out: affinity (Km) for MRP4; cited from earlier work
[6] = tested on: MRP2; details: read-out: affinity (Km) for MRP2; cited from earlier work
[7] = tested on: serum protein; assay: Protein-binding ratio of UTs in rat serum; assay type: in vitro ADME, rats; details: ultrafiltration at 37 °C
[8] = tested on: MRP4; assay: Intracellular accumulation of UTs in MRP4-overexpressing cells; assay type: cell-based, human; details: 100 μM, 30 min
[9] = molecular target: T1, OAT3 (Homo sapiens, UniProt Q8TCC7); assay: Uptake of UTs in HEK293T-OAT3 cells; assay type: cell-based; details: 100 μM, 30 min
T1 sequence (Q8TCC7 1-542): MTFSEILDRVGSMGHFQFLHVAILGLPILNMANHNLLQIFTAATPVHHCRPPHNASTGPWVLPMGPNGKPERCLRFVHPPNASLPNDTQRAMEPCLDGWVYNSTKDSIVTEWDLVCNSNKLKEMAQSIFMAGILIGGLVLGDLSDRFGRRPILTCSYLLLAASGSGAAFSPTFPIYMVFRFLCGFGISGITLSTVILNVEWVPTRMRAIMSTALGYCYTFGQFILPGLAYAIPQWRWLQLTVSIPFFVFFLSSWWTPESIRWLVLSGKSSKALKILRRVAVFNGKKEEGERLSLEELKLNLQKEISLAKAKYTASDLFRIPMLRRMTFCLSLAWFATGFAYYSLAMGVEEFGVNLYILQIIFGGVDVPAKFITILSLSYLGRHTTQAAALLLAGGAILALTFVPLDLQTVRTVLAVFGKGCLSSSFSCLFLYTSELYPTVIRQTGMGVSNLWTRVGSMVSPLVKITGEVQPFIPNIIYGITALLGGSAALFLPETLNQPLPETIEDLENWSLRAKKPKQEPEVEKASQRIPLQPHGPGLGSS

[10] = tested on: rOATs; assay: rOATs inhibition experiment
[11] = assay type: in vivo, rats; details: rats
[12] = tested on: rOAT1/3; assay: rOAT1/3−/− rat experiment; assay type: in vivo, rats; details: rat, in vivo
[13] = tested on: OAT1/3 and MRP4 double-transfected MDCK cells
[14] = molecular target: T2, OAT1 (Homo sapiens, UniProt Q4U2R8); assay: Uptake of UTs in HEK293T-OAT1 cells; assay type: cell-based; details: 100 μM, 30 min
T2 sequence (Q4U2R8 1-563): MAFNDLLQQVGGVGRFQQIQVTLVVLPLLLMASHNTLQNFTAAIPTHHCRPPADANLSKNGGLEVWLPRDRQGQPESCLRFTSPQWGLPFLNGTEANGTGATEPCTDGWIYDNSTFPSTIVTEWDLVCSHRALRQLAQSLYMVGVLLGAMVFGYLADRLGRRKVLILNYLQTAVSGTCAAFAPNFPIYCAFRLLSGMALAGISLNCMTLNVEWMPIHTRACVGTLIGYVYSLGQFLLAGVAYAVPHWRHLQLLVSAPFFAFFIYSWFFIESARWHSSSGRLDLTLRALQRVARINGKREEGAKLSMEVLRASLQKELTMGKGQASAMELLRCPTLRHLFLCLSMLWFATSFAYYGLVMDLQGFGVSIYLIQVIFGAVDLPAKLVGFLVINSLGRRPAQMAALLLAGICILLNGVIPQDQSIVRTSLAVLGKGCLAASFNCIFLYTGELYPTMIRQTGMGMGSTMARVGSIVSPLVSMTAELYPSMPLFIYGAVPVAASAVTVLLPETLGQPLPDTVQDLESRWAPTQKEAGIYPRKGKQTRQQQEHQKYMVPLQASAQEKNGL

[15] = tested on: rMRP4; assay type: in vivo, rats; details: rat, in vivo
[16] = molecular target: T2, OAT1; assay: Transport kinetics of UTs in HEK293T-OAT1 cells; assay type: cell-based; details: HEK293T-OAT1/3 cells, 100 μM
[17] = tested on: OAT4; assay: Specificity: uptake in OAT4-overexpressing cells; assay type: cell-based
[18] = substrate: O=C(O)c1cc(=O)c2ccccc2[nH]1; assay: Transport kinetics of UTs in HEK293T-OAT1 cells; assay type: cell-based, human; details: other: HEK293T-OAT1, Michaelis-Menten
[19] = substrate: CCCc1oc(CCC(=O)O)c(C(=O)O)c1C; assay: Transport kinetics of UTs in HEK293T-OAT1 cells; assay type: cell-based, human; details: other: HEK293T-OAT1, Michaelis-Menten
[20] = substrate: O=C(O)c1cc(=O)c2ccccc2[nH]1; assay: Transport kinetics of UTs in HEK293T-OAT3 cells; assay type: cell-based, human; details: other: HEK293T-OAT3, Michaelis-Menten
[21] = substrate: CCCc1oc(CCC(=O)O)c(C(=O)O)c1C; assay: Transport kinetics of UTs in HEK293T-OAT3 cells; assay type: cell-based, human; details: other: HEK293T-OAT3, Michaelis-Menten
[22] = PROB 30, 60, 120 mg/kg oral, 7 days

serum creatinine and urea nitrogen levels ([2]; rats, 20 mg/kg oral, 7 days): significantly increased | pathological changes in the kidneys ([2]; rats, different doses, H&E staining): No significant pathological changes
Molecule: CN(C)C(=O)CCSC(SCCC(=O)O)c1cccc(/C=C/c2ccc3ccc(Cl)cc3n2)c1 (stereo not drawn) [MK-571, reference compound]
effect on B to A transmembrane transport of CMPF [1]: substantially inhibited | effect on B−A transport of kynurenic acid [1]: significantly reduced

plasma concentrations in rats treated with PROB ([4]; PROB 60 and 120 mg/kg 7 days, cefmetazole 100 mg/kg i.v.): increased | cmax in WT rats given 100 mg/kg vs KO rats given 60 mg/kg ([4]; i.p., 7 consecutive days): close to
Molecule: CO[C@@]1(NC(=O)CSCC#N)C(=O)N2C(C(=O)O)=C(CSc3nnnn3C)CS[C@@H]21 [cefmetazole, reference compound]
renal tubular secretion [3]: about 40%

Molecule: Nc1ccc(C(=O)NCC(=O)O)cc1 [aminohippuric acid]
Km [5]: 160 µM | Km [6]: 2000 µM

Protein-binding ratio, Normal rats in vivo (%) (n = 6) [7]: > 90% | uptake at 4 °C in MRP4-overexpressing cells vs control ([8]; 4 °C): not significantly different | intracellular accumulation in MRP4-overexpressing cells vs control cells ([8]; 37 °C, 4 mM ATP): significantly decreased | uptake at 4 °C in OAT3-overexpressing cells vs control ([9]; 4 °C): not significantly different | uptake of HSA-bound UT in OAT3-overexpressing cells vs control cells ([9]; 37 °C, with HSA): dramatically increased | cumulative urinary excretion in rats treated with PROB vs control ([10]; 12 h urine): no significant effects | renal uptake ratios in rats treated with PROB vs control [10, 22]: decreased | serum levels in rats treated with PROB vs control [10, 22]: increased | renal excretion with MK-571 vs control ([11]; MK-571 20 mg/kg): did not affect | renal excretion with PROB vs control ([11]; PROB 60 mg/kg): did not affect | renal clearance rate in rOAT1/3−/− rats vs WT [12]: significantly decreased | renal tissue uptake ratio in rOAT1/3−/− rats vs WT [12]: significantly decreased | serum levels in rOAT1/3−/− rats vs WT [12]: significantly increased | uptake at 4 °C in OAT1/3 and MRP4 double-transfected cells ([13]; 4 °C): no significant difference | uptake at 37 °C in OAT1-MRP4 cells vs double control cells ([13]; 37 °C): significantly increased | uptake at 37 °C in OAT3-MRP4 cells vs double control cells ([13]; 37 °C): significantly increased | levels in renal tissues in rats treated with MK-571 vs control ([2]; MK-571 5, 10, 20 mg/kg oral, 7 days): significantly increased | cumulative urinary excretion in rats treated with MK-571 vs control ([2]; MK-571 (CMPF effect at 20 mg/kg)): significantly decreased | uptake at 4 °C in OAT1-overexpressing cells vs control ([14]; 4 °C): not significantly different | uptake of HSA-bound UT in OAT1-overexpressing cells vs control cells ([14]; 37 °C, with HSA): dramatically increased | renal clearance rate in rMRP4−/− rats vs WT [15]: did not change significantly | renal tissue concentration in rMRP4−/− rats vs WT [15]: significantly elevated | serum levels in rMRP4−/− rats vs WT [15]: did not change significantly | linear uptake time [16]: 0 to 10 min | transport mediated by OAT4 / uptake in OAT4-overexpressing cells vs control [17]: significantly higher
Molecule: CCCc1oc(CCC(=O)O)c(C(=O)O)c1C [CMPF, 3-carboxy-4-methyl-5-propyl-2-furanpropanoic acid]
uptake of free UT in OAT3-overexpressing cells vs control cells ([9]; 37 °C, without HSA): dramatically increased; also recorded: markedly higher | uptake of free UT in OAT1-overexpressing cells vs control cells ([14]; 37 °C, without HSA): dramatically increased; also recorded: markedly higher

B1: OAT1 (Homo sapiens) (protein)
chain: T2 sequence (Q4U2R8 1-563)
Km [18]: 496.7 µM | Km [19]: 1,483 μM | Vmax [19]: 323 pmol/mg protein/min

B2: OAT3 (Homo sapiens) (protein)
chain: T1 sequence (Q8TCC7 1-542)
Km [20]: 382.2 µM | Km [21]: 447.1 µM | Vmax [21]: 133.2 pmol/mg protein/min
